Measurements reported in patent US20050112573A1, “Method of detecting toxic substance” (priority 2001, published 2005).

Tested on: yeast genes (level of expressed mRNA)
Assay: DNA chip analysis of expressed mRNA of yeast genes after 2 h culture with a toxic chemical substance
Format: cell-based, Saccharomyces cerevisiae S288C
Details: for The level of expressed mRNA in the presence of chemical substance/: ratio to no chemical; for The level of expressed mRNA in the presence of chemical substance/ (ratio to absence): transport facilitation protein gene; for The level of expressed mRNA in the presence of chemical substance/ (ratio to absence of chemical substance): stress protein genes, DNA chip; for The level of expressed mRNA in the presence of chemical substance/ in its absence, gene YPR184W: yeast gene YPR184W
Method in brief: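 S. cerevisiae S288C in YPD at 25 °C was exposed at log phase for 2 h to a growth-inhibiting, non-lethal concentration of the chemical. Poly(A) mRNA was reverse-transcribed with Cy3- or Cy5-dUTP and hybridized to a whole-genome yeast DNA chip (65 °C, >12 h). Values are fluorescence ratios versus untreated cells.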

sodium dodecylbenzosulfonate [(17)]
1.3: The level of expressed mRNA in the presence of chemical substance/ (in its absence), gene YNR072W (yeast gene YNR072W, ratio of DNA chip fluorescence intensity to that without chemical substance) | The level of expressed mRNA in the presence of chemical substance/ (yeast gene YOL084W) | The level of expressed mRNA in the presence of chemical substance/in the absence of chemical substance (yeast gene YOR120W) | The level of expressed mRNA in the presence of chemical substance/ (ratio to absence) (yeast gene YOR332W) | The level of expressed mRNA in the presence of chemical substance/ (in its absence), gene YOR363C (yeast gene YOR363C, ratio of DNA chip fluorescence intensity to that without chemical substance) | The level of expressed mRNA in the presence of chemical substance/ (ratio to absence), gene YPL134C (yeast gene YPL134C, mitochondria-located protein genes, 2 h culture with chemical) | The level of expressed mRNA in the presence of chemical substance/ (ratio to absence) (yeast gene YPL224C)
2.3: The level of expressed mRNA in the presence of chemical substance/ (in its absence), gene YPR165W (yeast gene YPR165W, ratio of DNA chip fluorescence intensity to that without chemical substance)
1.2: The level of expressed mRNA in the presence of chemical substance/ (yeast gene YNL285W) | The level of expressed mRNA in the presence of chemical substance/ (ratio to absence), gene YOL096C (yeast gene YOL096C, mitochondria-located protein genes, 2 h culture with chemical) | The level of expressed mRNA in the presence of chemical substance/ (in its absence), gene YOL096C (yeast gene YOL096C, ratio of DNA chip fluorescence intensity to that without chemical substance) | The level of expressed mRNA in the presence of chemical substance/ (yeast gene YOR007C) | The level of expressed mRNA in the presence of chemical substance/The level of expressed mRNA in the absence of chemical substance (yeast gene YOR132W) | The level of expressed mRNA in the presence of chemical substance/The level of expressed mRNA in the absence of chemical substance (yeast gene YOR157C) | The level of expressed mRNA in the presence of chemical substance/in the absence of chemical substance (yeast gene YOR303W) | The level of expressed mRNA in the presence of chemical substance/The level of expressed mRNA in the absence of chemical substance (yeast gene YPL109C) | The level of expressed mRNA in the presence of chemical substance/ (ratio to absence) (yeast gene YPL271W) | The level of expressed mRNA in the presence of chemical substance/The level of expressed mRNA in the absence of chemical substance (yeast gene YPR103W)
2.6: The level of expressed mRNA in the presence of chemical substance/ (ratio to absence) (yeast gene YNL259C)
1.1: The level of expressed mRNA in the presence of chemical substance/The level of expressed mRNA in the absence of chemical substance (yeast gene YNR069C) | The level of expressed mRNA in the presence of chemical substance/The level of expressed mRNA in the absence of chemical substance (yeast gene YOL013C) | The level of expressed mRNA in the presence of chemical substance/ (in its absence), gene YOL116W (yeast gene YOL116W, ratio of DNA chip fluorescence intensity to that without chemical substance) | The level of expressed mRNA in the presence of chemical substance/ (ratio to absence of chemical substance) (yeast gene YOL161C) | The level of expressed mRNA in the presence of chemical substance/The level of expressed mRNA in the absence of chemical substance (yeast gene YOL164W) | The level of expressed mRNA in the presence of chemical substance/ (in its absence), gene YOR103C (yeast gene YOR103C, ratio of DNA chip fluorescence intensity to that without chemical substance) | The level of expressed mRNA in the presence of chemical substance/The level of expressed mRNA in the absence of chemical substance (yeast gene YOR181W) | The level of expressed mRNA in the presence of chemical substance/The level of expressed mRNA in the absence of chemical substance (yeast gene YOR198C) | The level of expressed mRNA in the presence of chemical substance/ (yeast gene YPL166W) | The level of expressed mRNA in the presence of chemical substance/ (yeast gene YPL202C) | The level of expressed mRNA in the presence of chemical substance/ (yeast gene YPR147C)
1.7: The level of expressed mRNA in the presence of chemical substance/in the absence of chemical substance (yeast gene YNL331C) | The level of expressed mRNA in the presence of chemical substance/The level of expressed mRNA in the absence of chemical substance (yeast gene YNR010W) | The level of expressed mRNA in the presence of chemical substance/in the absence of chemical substance (yeast gene YPR167C)
1.6: The level of expressed mRNA in the presence of chemical substance/ (yeast gene YNR061C) | The level of expressed mRNA in the presence of chemical substance/in the absence of chemical substance (yeast gene YOL165C) | The level of expressed mRNA in the presence of chemical substance/ (ratio to absence) (yeast gene YOR035C) | The level of expressed mRNA in the presence of chemical substance/The level of expressed mRNA in the absence of chemical substance (yeast gene YOR036W) | The level of expressed mRNA in the presence of chemical substance/The level of expressed mRNA in the absence of chemical substance (yeast gene YPL154C)
1.0: The level of expressed mRNA in the presence of chemical substance/in the absence of chemical substance (yeast gene YNL241C) | The level of expressed mRNA in the presence of chemical substance/ (yeast gene YNL293W) | The level of expressed mRNA in the presence of chemical substance/in the absence of chemical substance (yeast gene YNL332W) | The level of expressed mRNA in the presence of chemical substance/The level of expressed mRNA in the absence of chemical substance (yeast gene YOR124C) | The level of expressed mRNA in the presence of chemical substance/in the absence of chemical substance (yeast gene YOR226C) | The level of expressed mRNA in the presence of chemical substance/ (yeast gene YOR228C) | The level of expressed mRNA in the presence of chemical substance/ (yeast gene YOR255W) | The level of expressed mRNA in the presence of chemical substance/The level of expressed mRNA in the absence of chemical substance (yeast gene YOR261C) | The level of expressed mRNA in the presence of chemical substance/ (in its absence), gene YPL148C (yeast gene YPL148C, ratio of DNA chip fluorescence intensity to that without chemical substance) | The level of expressed mRNA in the presence of chemical substance/ (ratio to absence of chemical substance) (yeast gene YPL194W) | The level of expressed mRNA in the presence of chemical substance/ (ratio to absence of chemical substance) (yeast gene YPR005C) | The level of expressed mRNA in the presence of chemical substance/The level of expressed mRNA in the absence of chemical substance (yeast gene YPR108W) | The level of expressed mRNA in the presence of chemical substance/ (ratio to absence) (yeast gene YPR124W) | The level of expressed mRNA in the presence of chemical substance/ in its absence, gene YPR184W (energy system protein genes, 2 h culture with the chemical, ratio to control without chemical) | The level of expressed mRNA in the presence of chemical substance/ in its absence, gene YPR184W (ratio of DNA chip fluorescence intensity to that without chemical substance)
1.5: The level of expressed mRNA in the presence of chemical substance/ (ratio to absence of chemical substance) (yeast gene YNR076W) | The level of expressed mRNA in the presence of chemical substance/ (in its absence), gene YOL108C (yeast gene YOL108C, ratio of DNA chip fluorescence intensity to that without chemical substance) | The level of expressed mRNA in the presence of chemical substance/ (ratio to absence) (yeast gene YOR130C) | The level of expressed mRNA in the presence of chemical substance/The level of expressed mRNA in the absence of chemical substance (yeast gene YOR288C) | The level of expressed mRNA in the presence of chemical substance/The level of expressed mRNA in the absence of chemical substance (yeast gene YPL089C) | The level of expressed mRNA in the presence of chemical substance/ (ratio to absence) (yeast gene YPL147W)
1.4: The level of expressed mRNA in the presence of chemical substance/in the absence of chemical substance (yeast gene YNL274C) | The level of expressed mRNA in the presence of chemical substance/The level of expressed mRNA in the absence of chemical substance (yeast gene YNL333W) | The level of expressed mRNA in the presence of chemical substance/ (ratio to absence) (yeast gene YOL119C) | The level of expressed mRNA in the presence of chemical substance/ (ratio to absence) (yeast gene YOL158C) | The level of expressed mRNA in the presence of chemical substance/ (ratio to absence of chemical substance) (yeast gene YOR010C) | The level of expressed mRNA in the presence of chemical substance/The level of expressed mRNA in the absence of chemical substance (yeast gene YOR117W) | The level of expressed mRNA in the presence of chemical substance/The level of expressed mRNA in the absence of chemical substance (yeast gene YOR383C) | The level of expressed mRNA in the presence of chemical substance/ (yeast gene YPR077C)
3.2: The level of expressed mRNA in the presence of chemical substance/ (ratio to absence) (yeast gene YOR273C)
0.7: The level of expressed mRNA in the presence of chemical substance/ (ratio to absence) (yeast gene YPL274W)
2.5: The level of expressed mRNA in the presence of chemical substance/in the absence of chemical substance (yeast gene YOR153W)
0.8: The level of expressed mRNA in the presence of chemical substance/ (yeast gene YNL240C) | The level of expressed mRNA in the presence of chemical substance/ (ratio to absence) (yeast gene YOL163W) | The level of expressed mRNA in the presence of chemical substance/ (ratio to absence of chemical substance) (yeast gene YOR008C) | The level of expressed mRNA in the presence of chemical substance/ (ratio to absence), gene YOR316C (yeast gene YOR316C, mitochondria-located protein genes, 2 h culture with chemical) | The level of expressed mRNA in the presence of chemical substance/The level of expressed mRNA in the absence of chemical substance (yeast gene YOR355W) | The level of expressed mRNA in the presence of chemical substance/ (ratio to absence), gene YPL040C (yeast gene YPL040C, mitochondria-located protein genes, 2 h culture with chemical) | The level of expressed mRNA in the presence of chemical substance/ (ratio to absence) (yeast gene YPR201W)
2.0: The level of expressed mRNA in the presence of chemical substance/ (yeast gene YOL159C)
0.9: The level of expressed mRNA in the presence of chemical substance/ (yeast gene YNL260C) | The level of expressed mRNA in the presence of chemical substance/ (yeast gene YNR074C) | The level of expressed mRNA in the presence of chemical substance/ (ratio to absence of chemical substance) (yeast gene YOR009W) | The level of expressed mRNA in the presence of chemical substance/ (in its absence), gene YOR180C (yeast gene YOR180C, ratio of DNA chip fluorescence intensity to that without chemical substance) | The level of expressed mRNA in the presence of chemical substance/The level of expressed mRNA in the absence of chemical substance (yeast gene YOR185C) | The level of expressed mRNA in the presence of chemical substance/ (yeast gene YOR225W) | The level of expressed mRNA in the presence of chemical substance/ (in its absence), gene YOR251C (yeast gene YOR251C, ratio of DNA chip fluorescence intensity to that without chemical substance) | The level of expressed mRNA in the presence of chemical substance/The level of expressed mRNA in the absence of chemical substance (yeast gene YOR259C) | The level of expressed mRNA in the presence of chemical substance/ (ratio to absence) (yeast gene YOR270C) | The level of expressed mRNA in the presence of chemical substance/ (in its absence), gene YOR348C (yeast gene YOR348C, ratio of DNA chip fluorescence intensity to that without chemical substance) | The level of expressed mRNA in the presence of chemical substance/ (ratio to absence of chemical substance) (yeast gene YPL140C)
0.5: The level of expressed mRNA in the presence of chemical substance/ (ratio to absence) (yeast gene YPL265W)
3.5: The level of expressed mRNA in the presence of chemical substance/ (yeast gene YOR220W)
2.2: The level of expressed mRNA in the presence of chemical substance/The level of expressed mRNA in the absence of chemical substance (yeast gene YPL149W)
1.8: The level of expressed mRNA in the presence of chemical substance/ (ratio to absence of chemical substance) (yeast gene YPL059W)
4.0: The level of expressed mRNA in the presence of chemical substance/in the absence of chemical substance (yeast gene YOL151W)
9.1: The level of expressed mRNA in the presence of chemical substance/in the absence of chemical substance (yeast gene YPL088W)
